Data published in US7579366B2, “Epothilone derivatives and their synthesis and use” (The Scripps Research Institute, priority 1998, dated 2009).

Columns and labels:
[1] = from C/C(=C\I)[C@@H](O)C/C=C(\CCC[C@H](C)[C@H](O[Si](C)(C)C(C)(C)C)[C@@H](C)C(=O)C(C)(C)[C@H](CC(=O)O)O[Si](C)(C)C(C)(C)C)COC(c1ccccc1)(c1ccccc1)c1ccccc1; ester bond; 2,4,6-trichlorobenzoyl chloride, Et3N, 4-DMAP (Yamaguchi); toluene; 4.66 mM; 75.0 °C; 2.5 h
[2] = biological target: T1, pig brain microtubuli protein (tubulin plus microtubuli-associated proteins) (Sus scrofa, UniProt P02554); experiment: Induction of tubulin polymerisation, pig brain microtubuli, compared with 25 μM epothilone B; format: biochemical; settings: 5 μM test compound versus epothilone B at 25 μM (in %)
T1 construct: Microtubuli-protein is obtained from pig brain by two cycles of temperature dependent depolymerisation/polymerisation; from tissue; host or cells: pig brain
Experimental: Stock solutions of the test compounds are made in DMSO and stored at −20° C. Microtubuli-protein is obtained from pig brain by two cycles of temperature dependent depolymerisation/polymerisation, as described (see Weingarten et al., Biochemistry 1974; 13: 5529-37). Working stock solutions of microtubule protein (meaning tubulin plus microtubuli-associated proteins) are stored at −70° C. The degree of the microtubuli protein polymerisation induced by a test compound is measured essentially as known from the literature (see Lin et al., Cancer Chem. Pharm. 1996; 38:136-140). In short, 5 μl stock solution of the test compound are pre-mixed in the twenty-fold of the desired final concentration with 45 μl of water at room temperature, and the mixture is then placed on ice. […] As indirect measure for the tubulin-polymerisation the protein concentration of the supernatant (which contains the rest of the un-polymerised, soluble microtubuli protein) is determined according to the Lowry method (DC Assay Kit, Bio-Rad Laboratories, Hercules, Calif.), and the optical density (OD) of the color reaction is determined at 750 nm with a spectrometer (SpectraMax 340, Molecular Devices, Sunnyvale, Calif.). […]

KB-31 cells = experiment: Cell growth inhibition, KB-31 epidermoid carcinoma cells; format: cell-based; settings: Homo sapiens, KB 3-1
Experimental: (§1) Stock solutions of the test compound of formula I 10 mM) in DMSO are prepared and stored at −20° C. Human KB-31 and (multidrug-resistant, P-gp 170 overexpressing) KB-8511 epidermoid carcinoma cells are from Dr. M. Baker, Roswell Park Memorial Institute (Buffalo, N.Y., USA) (for description see also Akiyama et al., Somat. Cell. Mol. Genetics 11, 117-126 (1985) und Fojo A., et al., Cancer Res. 45, 3002-3007 (1985)—KB-31 und KB-8511 both are derivatives of the KB-cell line (American Type Culture Collection) and are human epidermoid carcinoma cells. KB-31 cells can be cultivated in mono-layers using calf serum (M.A. Bioproducts), L-glutamine (Flow), penicillin (50 Units/ml) und streptomycin (50 μg/ml (Flow); they then grow with a doubling rate of about 22 hours, and the relative efficiency of plating them out lies at about 60%. […] After washing again, the stain is eluted with 3% HCl and the optical density at 665 nm is measured with a SpectraMax 340 (Molecular Devices, Sunnyvale, Calif.). IC50-values are determined by mathematically fitting the data to curves using the SoftPro2.0 program (Molecular Devices, Sunnyvale, Calif.) and the formula [(OD treated)−(OD start)]/[(OD control)−(OD start)]×100. […]

KB-8511 cells = experiment: Cell growth inhibition, KB-8511 epidermoid carcinoma cells (P-gp overexpressing); format: cell-based; settings: Homo sapiens
Experimental: as §1

A549 cells = experiment: Cell growth inhibition, A549 lung cells; format: cell-based; settings: Homo sapiens
HCT-15 cells = experiment: Cell growth inhibition, HCT-15 colon cells; format: cell-based; settings: Homo sapiens
HCT-116 cells = experiment: Cell growth inhibition, HCT-116 colon cells; format: cell-based; settings: Homo sapiens
DU145 cells = experiment: Cell growth inhibition, DU145 prostate cells; format: cell-based; settings: Homo sapiens, DU-145
PC-3M cells = experiment: Cell growth inhibition, PC-3M prostate cells; format: cell-based; settings: Homo sapiens
MCF-7 cells = experiment: Cell growth inhibition, MCF-7 breast cells; format: cell-based; settings: Homo sapiens, MCF7
MCF-7/ADR cells = experiment: Cell growth inhibition, MCF-7/ADR breast cells (multidrug resistant); format: cell-based; settings: Homo sapiens, NCI/ADR-RES

T1 sequence (P02554 whole entry): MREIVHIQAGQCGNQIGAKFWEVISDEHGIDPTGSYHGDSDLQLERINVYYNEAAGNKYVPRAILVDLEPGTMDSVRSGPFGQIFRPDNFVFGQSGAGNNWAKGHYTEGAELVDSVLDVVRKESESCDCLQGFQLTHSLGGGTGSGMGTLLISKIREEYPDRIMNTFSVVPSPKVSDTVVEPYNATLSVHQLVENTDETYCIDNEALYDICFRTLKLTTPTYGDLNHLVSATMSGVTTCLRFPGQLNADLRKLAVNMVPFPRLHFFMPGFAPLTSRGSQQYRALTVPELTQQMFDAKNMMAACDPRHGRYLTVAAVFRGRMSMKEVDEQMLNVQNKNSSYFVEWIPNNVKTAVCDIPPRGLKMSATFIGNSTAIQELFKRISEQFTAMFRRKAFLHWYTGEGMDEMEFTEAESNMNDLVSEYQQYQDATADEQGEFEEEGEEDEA
T1 sequence (P02550 whole entry partner): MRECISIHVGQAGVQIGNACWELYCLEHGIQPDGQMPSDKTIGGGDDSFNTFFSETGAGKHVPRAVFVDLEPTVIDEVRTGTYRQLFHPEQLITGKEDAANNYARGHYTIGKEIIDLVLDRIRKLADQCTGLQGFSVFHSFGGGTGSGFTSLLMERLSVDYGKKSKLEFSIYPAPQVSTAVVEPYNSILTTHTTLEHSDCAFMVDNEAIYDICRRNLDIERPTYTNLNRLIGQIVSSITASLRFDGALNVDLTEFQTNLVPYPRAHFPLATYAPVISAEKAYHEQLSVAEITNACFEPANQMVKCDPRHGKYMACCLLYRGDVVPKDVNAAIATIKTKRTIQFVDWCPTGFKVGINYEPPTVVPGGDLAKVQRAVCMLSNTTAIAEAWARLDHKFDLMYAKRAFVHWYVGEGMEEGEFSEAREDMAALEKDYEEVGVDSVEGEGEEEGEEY

Structure (SMILES) | ring closure, yield of all isomers [1] | Tubulin (%): induction of tubulin polymerisation [2] | IC50 (KB-31 cells) | IC50 (KB-8511 cells) | IC50 (A549 cells) | IC50 (HCT-15 cells) | IC50 (HCT-116 cells) | IC50 (DU145 cells) | IC50 (PC-3M cells) | IC50 (MCF-7 cells) | IC50 (MCF-7/ADR cells)
C/C(=C\I)[C@@H]1C/C=C(/COC(c2ccccc2)(c2ccccc2)c2ccccc2)CCC[C@H](C)[C@H](O[Si](C)(C)C(C)(C)C)[C@@H](C)C(=O)C(C)(C)[C@@H](O[Si](C)(C)C(C)(C)C)CC(=O)O1 | 84% |  |  |  |  |  |  |  |  |  | 
C/C(=C\c1ccc(C)cn1)[C@@H]1C[C@@H]2O[C@]2(C)CCCC(C)[C@H](O)C(C)C(=O)C(C)(C)C(O)CC(=O)O1 (some centres unmarked) [D (Example 1), 5-Methylpyridine Analogue D of Epothilone B] |  | 88.9% | 0.108 nM | 0.105 nM | 0.17 nM | 0.247 nM | 0.209 nM | 0.252 nM | 0.361 nM | 0.114 nM | 0.853 nM
